Test results from patent US7964624B1, “Inhibitors of serine proteases” (priority 2005, dated 2011).

Molecular target: T1, full-length hepatitis C viral protein NS3•4A (Hepatitis C virus genotype 1a, UniProt P27958)
T1 construct: hexa-histidine (N); made in house; host or cells: Sf9 insect cells (baculovirus, pVL1392)
Assay: biochemical
Design: species or system HCV sub-type strain 1a
Details: Enzyme Assay 2, HCV NS3 Peptide Cleavage Assay, apparent Ki

Compound	Ki [nM]
CNC(=O)C(=O)[C@H](CC1CC1)NC(=O)[C@@H]1C[C@]2(CC(c3cccc(Cl)c3)=NO2)CN1C(=O)[C@@H](NC(=O)[C@@H]1C[C@H]1c1ccccn1)C(C)(C)C [Compound 869]	< 100
CCC[C@H](NC(=O)[C@@H]1C[C@]2(CC(c3cc(C)c(OC)cc3OC)=NO2)CN1C(=O)[C@@H](NC(=O)[C@@H]1C[C@H]1c1ccccc1)C(C)(C)C)C(=O)C(=O)NC1CC1 [Compound 875]	< 100
CNC(=O)C(=O)[C@H](CC1CC1)NC(=O)[C@@H]1C[C@]2(CC(c3cccc(Cl)c3)=NO2)CN1C(=O)[C@@H](NC(=O)[C@@H]1C[C@H]1c1cccnc1)C(C)(C)C [Compound 885]	100 to 500
CNC(=O)C(=O)[C@H](CC1CC1)NC(=O)[C@@H]1C[C@]2(CC(c3cccc(Cl)c3)=NO2)CN1C(=O)[C@@H](NC(=O)[C@@H]1C[C@@H]1c1ccccn1)C(C)(C)C [Compound 886]	< 100
CNC(=O)C(=O)[C@H](CC1CC1)NC(=O)[C@@H]1C[C@]2(CC(c3cccc(Cl)c3)=NO2)CN1C(=O)[C@@H](NC(=O)[C@H]1C[C@H]1c1ccccc1)C(C)(C)C [Compound 887]	100 to 500
CCNC(=O)C(=O)[C@H](CC1CC1)NC(=O)[C@@H]1C[C@]2(CC(c3cc(Cl)c(OC)cc3OC)=NO2)CN1C(=O)[C@@H](NC(=O)C1CC1)C(C)(C)C [Compound 896]	< 100
CCC[C@H](NC(=O)[C@@H]1C[C@]2(CC(c3cccc(Cl)c3)=NO2)CN1C(=O)[C@@H](NC(=O)[C@@H]1C[C@H]1C(C)C)C(C)(C)C)C(=O)C(=O)NC1CC1 [Compound 897]	< 100
COc1ccc(Cl)cc1C1=NO[C@]2(C1)C[C@@H](C(=O)N[C@@H](CC1CC1)C(=O)C(N)=O)N(C(=O)[C@@H](NC(=O)[C@@H]1C[C@H]1c1ccccc1)C(C)(C)C)C2 [Compound 901]	< 100
CNC(=O)C(=O)[C@H](CC1CC1)NC(=O)[C@@H]1C[C@]2(CC(c3cc(Cl)ccc3OC)=NO2)CN1C(=O)[C@@H](NC(=O)[C@H]1C[C@@H]1c1ccccc1)C(C)(C)C [Compound 903]	< 100
CCC[C@H](NC(=O)[C@@H]1C[C@]2(CC(N3Cc4ccccc4C3)=NO2)CN1C(=O)[C@@H](NC(=O)OC1CCCC1)C(C)(C)C)C(=O)C(=O)NC1CC1 [Compound 904]	< 100
CCC[C@H](NC(=O)C1C[C@]2(CC(c3cc(C)c(OC)c(C)c3)=NO2)CN1C(=O)[C@@H](NC(=O)[C@@H]1C[C@H]1c1c[nH]cn1)C(C)(C)C)C(=O)C(=O)NC1CC1 (stereo partly drawn) [Compound 907]	100 to 500
CCC[C@H](NC(=O)[C@@H]1C[C@]2(CC(c3cc(C)c(OCC)c(Cl)c3)=NO2)CN1C(=O)[C@@H](NC(=O)[C@@H]1C[C@H]1c1ccccc1)C(C)(C)C)C(=O)C(=O)NC1CC1 [Compound 915]	< 100
CCC[C@H](NC(=O)[C@@H]1C[C@]2(CC(c3cccc(Cl)c3)=NO2)CN1C(=O)[C@@H](NC(=O)[C@@H]1C[C@H]1c1c[nH]cn1)C(C)(C)C)C(=O)C(=O)NC1CC1 [Compound 918]	100 to 500
CCC[C@H](NC(=O)[C@@H]1C[C@]2(CC(c3cccc(Cl)c3)=NO2)CN1C(=O)[C@@H](NC(=O)[C@H]1C[C@@H]1C1CCCCC1)C(C)(C)C)C(=O)C(=O)NC1CC1 [Compound 920]	100 to 500
CCC[C@H](NC(=O)[C@@H]1C[C@]2(CC(c3cccc(Cl)c3)=NO2)CN1C(=O)[C@@H](NC(=O)[C@@H]1CC12CCOCC2)C(C)(C)C)C(=O)C(=O)NC1CC1 [Compound 923]	< 100
CNC(=O)C(=O)[C@H](CC1CC1)NC(=O)[C@@H]1C[C@]2(CC(c3cccc(Cl)c3)=NO2)CN1C(=O)[C@@H](NC(=O)[C@@H]1CC12CCOCC2)C(C)(C)C [Compound 927]	< 100
CCC[C@H](NC(=O)[C@@H]1C[C@]2(CC(c3cccc(Cl)c3)=NO2)CN1C(=O)[C@@H](NC(=O)[C@H]1C[C@@H]1C1CCCCC1)C(C)(C)C)C(=O)C(=O)NC [Compound 928]	100 to 500

Compound	Ki [nM]
CCC[C@H](NC(=O)[C@@H]1C[C@]2(CC(c3cccc(Cl)c3)=NO2)CN1C(=O)[C@@H](NC(=O)[C@@H]1CC12CCOCC2)C(C)(C)C)C(=O)C(=O)NC [Compound 931]	100 to 500
CCC[C@H](NC(=O)[C@@H]1C[C@]2(CC(c3cccc(Cl)c3)=NO2)CN1C(=O)[C@@H](NC(=O)[C@H]1C[C@@H]1C1CCCCC1)C(C)(C)C)C(=O)C(N)=O [Compound 932]	< 100
CCOc1cc(OC)c(C2=NO[C@]3(C2)C[C@@H](C(=O)N[C@@H](CC2CC2)C(=O)C(=O)NC)N(C(=O)[C@@H](NC(=O)OC(C)(C)C)C(C)(C)C)C3)cc1Cl [Compound 942]	< 100
CCOc1cc(OC)c(C2=NO[C@]3(C2)C[C@@H](C(=O)N[C@@H](CC2CC2)C(=O)C(=O)NC)N(C(=O)[C@@H](NC(=O)OC2CCCC2)C(C)(C)C)C3)cc1Cl [Compound 947]	< 100
CCC[C@H](NC(=O)[C@@H]1C[C@]2(CC(c3cccc(Cl)c3)=NO2)CN1C(=O)[C@@H](NC(=O)[C@H]1C[C@@H]1C1CCCC1)C(C)(C)C)C(=O)C(=O)NC1CC1 [Compound 953]	< 100
CCC[C@H](NC(=O)[C@@H]1C[C@]2(CC(c3cccc(Cl)c3)=NO2)CN1C(=O)[C@@H](NC(=O)[C@@H]1C[C@H]1C1CCCC1)C(C)(C)C)C(=O)C(=O)NC1CC1 [Compound 954]	< 100
CNC(=O)C(=O)[C@H](CC1CC1)NC(=O)[C@@H]1C[C@]2(CC(c3cccc(Cl)c3)=NO2)CN1C(=O)[C@@H](NC(=O)C1CC1c1ccn(C)n1)C(C)(C)C (stereo partly drawn) [Compound 955]	< 100
CCC[C@H](NC(=O)[C@@H]1C[C@]2(CC(c3cc(C)c(OCC)c(C)c3)=NO2)CN1C(=O)[C@@H](NC(=O)CC1CCCCC1)C(C)(C)OC)C(=O)C(=O)NC1CC1 [Compound 956]	< 100
CCC[C@H](NC(=O)[C@@H]1C[C@]2(CC(c3cccc(Cl)c3)=NO2)CN1C(=O)[C@@H](NC(=O)OCC1(C)COC1)C(C)(C)C)C(=O)C(=O)NC1CC1 [Compound 957]	100 to 500
CNC(=O)C(=O)[C@H](CC1CC1)NC(=O)[C@@H]1C[C@]2(CC(c3cccc(Cl)c3)=NO2)CN1C(=O)[C@@H](NC(=O)Cc1cccnc1)C(C)(C)C [Compound 958]	< 100
CNC(=O)C(=O)[C@H](CC1CC1)NC(=O)[C@@H]1C[C@]2(CC(c3cccc(Cl)c3)=NO2)CN1C(=O)[C@@H](NC(=O)[C@H]1CC1c1ccccc1)C(C)(C)OC (stereo partly drawn) [Compound 959]	< 100
CCC[C@H](NC(=O)[C@@H]1C[C@]2(CC(c3cccc(Cl)c3)=NO2)CN1C(=O)[C@@H](NC(=O)[C@H]1CC1c1ccccc1)C(C)(C)OC)C(=O)C(=O)NC1CC1 (stereo partly drawn) [Compound 960]	< 100
CCC[C@H](NC(=O)[C@@H]1C[C@]2(CC(c3cccc(Cl)c3)=NO2)CN1C(=O)[C@@H](NC(=O)C1(c2ccccc2)CC1)C(C)(C)C)C(=O)C(=O)NC1CC1 [Compound 961]	> 500
CCC[C@H](NC(=O)[C@@H]1C[C@]2(CC(N3CCc4ccccc4C3)=NO2)CN1C(=O)[C@@H](NC(=O)OC1CCCC1)C(C)(C)C)C(=O)C(=O)NC1CC1 [Compound 962]	100 to 500
CCC[C@H](NC(=O)[C@@H]1C[C@]2(CC(N3Cc4ccccc4C3)=NO2)CN1C(=O)[C@@H](NC(=O)OC1CCCC1)C(C)(C)C)C(=O)C(=O)NC1CC1 [Compound 964]	100 to 500
CNC(=O)C(=O)[C@H](CC1CC1)NC(=O)[C@@H]1C[C@]2(CC(N3Cc4ccccc4C3)=NO2)CN1C(=O)[C@@H](NC(=O)OC1CCCC1)C(C)(C)C [Compound 965]	100 to 500
